Usually IC50 stands for the point on the concentration scale where inhibition reaches its midpoint.

One assay has as its system A431 (EGFR-WT) cells. Description: Inhibitory activity on proliferation of A431 (EGFR-WT) cells (CTG, 72 h). The assay is classed as cell-based. The conditions noted are these: Homo sapiens, A-431. How it is done:
NCI-H1975 (EGFR-L858R-T790M) and A431 (EGFR-WT) cells were purchased from ATCC and cultured in an incubator at 37° C. with 5% CO2, and the culture mediums were RPMI1640+10% FBS and DMEM+10% FBS, respectively. On the first day, NCI-H1975 (EGFR-L858R-T790M) and A431 (EGFR-WT) cells in the logarithmic phase were collected, and viable cells were counted using an automatic cell analyzer (countstar). The cell suspensions were adjusted with the culture mediums and plated on a 96-well cell culture plate at 1000 cells/well for NCI-H1975 (EGFR-L858R-T790M) cells and at 3000 cells/well for A431 cells. The next day, the culture mediums were aspirated, and 90 μL of fresh culture mediums and 10 μL of the compounds at different concentrations were added to each well, wherein the final concentration of DMSO in each well was 0.1%. The plate was cultured in the incubator at 37° C. with 5% CO2 for 72 hours. After 72 hours of drug treatment, 50 μL of CTG solution (promega, G7572), which was already pre-melted and equilibrated to room temperature, was added to each well, and the mixtures were uniformly mixed for 2 min using a microplate shaker. The plate was placed at room temperature for 10 min, and then […] signal values were measured using a microplate reader (PHERAstar FSX).
Surviving cells % was calculated based on Vsample/Vvehicle control×100%, wherein Vsample was the readout of the drug-treated group, and Vvehicle control was the average value of the vehicle control group. Using the origin 9.2 software and nonlinear regression model, S-shaped dose-survival curves were plotted, and IC50 values were calculated.

The subject of assay [1] is NCI-H1975 (EGFR-L858R-T790M) cells. Description: Inhibitory activity on proliferation of NCI-H1975 (EGFR-L858R-T790M) cells (CTG, 72 h). The assay is classed as cell-based. The conditions noted are these: Homo sapiens. In outline:
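Cells plated at 1000/well (NCI-H1975, RPMI1640+10% FBS) or 3000/well (A431, DMEM+10% FBS), dosed next day with compounds (0.1% DMSO final) for 72 h at 37 °C, 5% CO2. Viability by CTG luminescence, normalised to vehicle control; IC50 from nonlinear-regression dose-survival curves.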

[2] abbreviates: read-out: IC50 (value in brackets).

Molecules are shown by their SMILES. Like-named read-outs stand apart in the source and are kept apart here. Where only a bound is given, the exact number is not on record here.

`COc1cc(N2CCC(CN3CC4CN(c5ccc6c(c5)C(=O)N(C5CCC(=O)NC5=O)C6=O)CC4C3)CC2)c(C2CC2)cc1Nc1ncc(Br)c(Nc2ccc3nccnc3c2P(C)(C)=O)n1` (stereo not shown) [Compound 34, 5-(5-((1-(4-((5-bromo-4-((5-(dimethylphosphoryl)quinoxalin-6-yl)amino)pyrimidin-2-yl)amino)-2-cyclopropyl-5-methoxyphenyl)piperidin-4-yl)methyl)hexahydropyrrolo[3,4-c]pyrrol-2(1H)-yl)-2-(2,6-dioxopiperidin-3-yl)isoindoline-1,3-dione]: the half-inhibitory concentration (IC50) in the assay on A431 (EGFR-WT) cells was at least 10000 nM.
As to `COc1cc(N2CCC(N3CCN(c4ccc(N5CCC(=O)NC5=O)cc4)CC3)CC2)c(-c2cnn(C)c2)cc1Nc1ncc(Cl)c(Nc2ccc(C3CC3)cc2P(C)(C)=O)n1` [Compound 133, 1-(4-(4-(1-(4-((5-chloro-4-((4-cyclopropyl-2-(dimethylphosphoryl)phenyl)amino)pyrimidin-2-yl)amino)-5-methoxy-2-(1-methyl-1H-pyrazol-4-yl)phenyl)piperidin-4-yl)piperazin-1-yl)phenyl)dihydropyrimidine-2,4(1H,3H)-dione], the IC50 in the assay on A431 (EGFR-WT) cells is at least 10000 nM.
For the compound `COc1cc(N2CCC(N3CCN(c4ccc(N5CCC(=O)NC5=O)cc4)CC3)CC2)c(-c2cnn(C)c2)cc1Nc1ncc(Cl)c(Nc2ccc(-c3ccccc3)cc2P(C)(C)=O)n1` [Compound 137, 1-(4-(4-(1-(4-((5-chloro-4-((3-(dimethylphosphoryl)-[1,1′-biphenyl]-4-yl)amino)pyrimidin-2-yl)amino)-5-methoxy-2-(1-methyl-1H-pyrazol-4-yl)phenyl)piperidin-4-yl)piperazin-1-yl)phenyl)dihydropyrimidine-2,4(1H,3H)-dione], the IC50 with A431 (EGFR-WT) cells was at least 10000 nM.
For `COc1cc(N2CCC(CN3CCN(c4ccc(C5CCC(=O)NC5=O)c(F)c4)CC3)CC2)c(-c2cnn(C)c2)cc1Nc1ncc(Cl)c(Nc2ccccc2P(C)(C)=O)n1` (stereo not shown) [Compound 154, 3-(4-(4-((1-(4-((5-chloro-4-((2-(dimethylphosphoryl)phenyl)amino)pyrimidin-2-yl)amino)-5-methoxy-2-(1-methyl-1H-pyrazol-4-yl)phenyl)piperidin-4-yl)methyl)piperazin-1-yl)-2-fluorophenyl)piperidine-2,6-dione], the concentration for half-maximal inhibition (IC50) in assay [1] (read-out: IC50 (class symbol)) was below 100 nM; in assay [1] (setting [2]), 46 nM.
`COc1cc(N2CCC(CN3CCN(c4ccc(C5CCC(=O)NC5=O)cc4)CC3)CC2)c(-c2cnn(C)c2)cc1Nc1ncc(Cl)c(Nc2ccc(-c3ccccc3)cc2P(C)(C)=O)n1` (stereo not shown) [Compound 155, 3-(4-(4-((1-(4-((5-chloro-4-((3-(dimethylphosphoryl)-[1,1′-biphenyl]-4-yl)amino)pyrimidin-2-yl)amino)-5-methoxy-2-(1-methyl-1H-pyrazol-4-yl)phenyl)piperidin-4-yl)methyl)piperazin-1-yl)phenyl)piperidine-2,6-dione]: the half-inhibitory concentration (IC50) in assay [1] (read-out: IC50 (class symbol)) was below 100 nM; in assay [1] (setting [2]), 43 nM.
The corresponding values for `COc1cc(N2CCC(CN3CCN(c4ccc(C5CCC(=O)NC5=O)c(F)c4)CC3)CC2)c(-c2cnn(C)c2)cc1Nc1ncc(Cl)c(Nc2ccc(-c3ccccc3)cc2P(C)(C)=O)n1` (stereo not shown) [Compound 156, 3-(4-(4-((1-(4-((5-chloro-4-((3-(dimethylphosphoryl)-[1,1′-biphenyl]-4-yl)amino)pyrimidin-2-yl)amino)-5-methoxy-2-(1-methyl-1H-pyrazol-4-yl)phenyl)piperidin-4-yl)methyl)piperazin-1-yl)-2-fluorophenyl)piperidine-2,6-dione] are below 100 nM and 64 nM.
`COc1cc(N2CCC(CN3CCN(c4ccc(NC5CCC(=O)NC5=O)cc4F)CC3)CC2)c(-c2cnn(C)c2)cc1Nc1ncc(Cl)c(Nc2ccccc2P(C)(C)=O)n1` (stereo not shown) [Compound 157, 3-((4-(4-((1-(4-((5-chloro-4-((2-(dimethylphosphoryl)phenyl)amino)pyrimidin-2-yl)amino)-5-methoxy-2-(1-methyl-1H-pyrazol-4-yl)phenyl)piperidin-4-yl)methyl)piperazin-1-yl)-3-fluorophenyl)amino)piperidine-2,6-dione]: the values for the IC50 in assay [1] (read-out: IC50 (class symbol)) and in assay [1] (setting [2]) were below 100 nM and 29 nM, respectively.
Consider `COc1cc(N2CCC(CN3CCN(c4ccc(NC5CCC(=O)NC5=O)cc4F)CC3)CC2)c(-c2cnn(C)c2)cc1Nc1ncc(Cl)c(Nc2ccc(C3CC3)cc2P(C)(C)=O)n1` (stereo not shown) [Compound 158, 3-((4-(4-((1-(4-((5-chloro-4-((4-cyclopropyl-2-(dimethylphosphoryl)phenyl)amino)pyrimidin-2-yl)amino)-5-methoxy-2-(1-methyl-1H-pyrazol-4-yl)phenyl)piperidin-4-yl)methyl)piperazin-1-yl)-3-fluorophenyl)amino)piperidine-2,6-dione], for which the IC50 is below 100 nM in assay [1] (read-out: IC50 (class symbol)) and 26 nM in assay [1] (setting [2]).
The corresponding values for `COc1cc(N2CCC(CN3CCN(c4ccc(NC5CCC(=O)NC5=O)cc4F)CC3)CC2)c(-c2cnn(C)c2)cc1Nc1ncc(Cl)c(Nc2ccc(F)cc2P(C)(C)=O)n1` (stereo not shown) [Compound 159, 3-((4-(4-((1-(4-((5-chloro-4-((2-(dimethylphosphoryl)-4-fluorophenyl)amino)pyrimidin-2-yl)amino)-5-methoxy-2-(1-methyl-1H-pyrazol-4-yl)phenyl)piperidin-4-yl)methyl)piperazin-1-yl)-3-fluorophenyl)amino)piperidine-2,6-dione] are below 100 nM and 21 nM.
The corresponding values for `COc1cc(N2CCN(c3ccc4c(c3)C(=O)N(C3CCC(=O)NC3=O)C4=O)CC2)c(-c2cnn(C)c2)cc1Nc1ncc(Br)c(Nc2ccccc2P(C)(C)=O)n1` (stereo not shown) [Compound 169, 5-(4-(4-((5-bromo-4-((2-(dimethylphosphoryl)phenyl)amino)pyrimidin-2-yl)amino)-5-methoxy-2-(1-methyl-1H-pyrazol-4-yl)phenyl)piperazin-1-yl)-2-(2,6-dioxopiperidin-3-yl)isoindoline-1,3-dione] are 100 to 500 nM and 111 nM.
Regarding `COc1cc(N2CCN(C3CCN(CC4CCN(c5ccc6c(c5)C(=O)N(C5CCC(=O)NC5=O)C6=O)CC4)CC3)CC2)c(-c2cnn(C)c2)cc1Nc1ncc(Cl)c(Nc2ccc3nccnc3c2P(C)(C)=O)n1` (stereo not shown) [Trifluoroacetate of compound 12, 5-(4-((4-(4-(4-((5-chloro-4-((5-(dimethylphosphoryl)quinoxalin-6-yl)amino)pyrimidin-2-yl)amino)-5-methoxy-2-(1-methyl-1H-pyrazol-4-yl)phenyl)piperazin-1-yl)piperidin-1-yl)methyl)piperidin-1-yl)-2-(2,6-dioxopiperidin-3-yl)isoindoline-1,3-dione], the values for the half-inhibitory concentration (IC50) in assay [1] (read-out: IC50 (class symbol)) and in assay [1] (setting [2]) were below 100 nM and 59 nM, respectively.
On to `COc1cc(N2CCC(C3CCN(CC4CCN(c5ccc6c(c5)C(=O)N(C5CCC(=O)NC5=O)C6=O)CC4)CC3)CC2)c(-c2cnn(C)c2)cc1Nc1ncc(Cl)c(Nc2ccc3nccnc3c2P(C)(C)=O)n1` (stereo not shown) [Trifluoroacetate of compound 13, 5-(4-((1′-(4-((5-chloro-4-((5-(dimethylphosphoryl)quinoxalin-6-yl)amino)pyrimidin-2-yl)amino)-5-methoxy-2-(1-methyl-1H-pyrazol-4-yl)phenyl)-[4,4′-bipiperidin]-1-yl)methyl)piperidin-1-yl)-2-(2,6-dioxopiperidin-3-yl)isoindoline-1,3-dione], for which the IC50 in assay [1] (read-out: IC50 (class symbol)) was below 100 nM; in assay [1] (setting [2]), 37 nM.
The corresponding values for `COc1cc(N2CCC(N3CCC(CN4CCN(c5ccc6c(c5)C(=O)N(C5CCC(=O)NC5=O)C6=O)CC4)CC3)CC2)c(-c2cnn(C)c2)cc1Nc1ncc(Br)c(Nc2ccc3nccnc3c2P(C)(C)=O)n1` (stereo not shown) [Trifluoroacetate of compound 19, 5-(4-((1′-(4-((5-bromo-4-((5-(dimethylphosphoryl)quinoxalin-6-yl)amino)pyrimidin-2-yl)amino)-5-methoxy-2-(1-methyl-1H-pyrazol-4-yl)phenyl)-[1,4′-bipiperidin]-4-yl)methyl)piperazin-1-yl)-2-(2,6-dioxopiperidin-3-yl)isoindoline-1,3-dione] are below 100 nM and 42 nM.
Take `COc1cc(N2CCC3(CCN(CC4CCN(c5ccc6c(c5)C(=O)N(C5CCC(=O)NC5=O)C6=O)CC4)CC3)CC2)c(-c2cnn(C)c2)cc1Nc1ncc(Br)c(Nc2ccc3nccnc3c2P(C)(C)=O)n1` (stereo not shown) [Trifluoroacetate of compound 20, 5-(4-((9-(4-((5-bromo-4-((5-(dimethylphosphoryl)quinoxalin-6-yl)amino)pyrimidin-2-yl)amino)-5-methoxy-2-(1-methyl-1H-pyrazol-4-yl)phenyl)-3,9-diazaspiro[5.5]undecan-3-yl)methyl)piperidin-1-yl)-2-(2,6-dioxopiperidin-3-yl)isoindoline-1,3-dione]: the concentration for half-maximal inhibition (IC50) was below 100 nM in assay [1] (read-out: IC50 (class symbol)) and 14 nM in assay [1] (setting [2]).

For the origin of these results see patent US20240269298A1, “PHOSPHONYL DERIVATIVE, AND COMPOSITION AND PHARMACEUTICAL APPLICATION THEREOF” (XIZANG HAISCO PHARMACEUTICAL CO., LTD., priority 2021, published 2024).
